Laboratory results taken from patent US20220202783A1, “Use Of ADAM9 Inhibitor As Immunomodulator” (China Medical University, priority 2019, published 2022).

Columns and labels:
Type in all cases: cell-based
Parameters in all cases: key to effect of inhibiting tumor cell growth: “+” represents that the compound has the effect of inhibiting tumor cell growth
[1] = system: lung cancer cells (H1299); assay: cytotoxicity assay in H1299 cells; conditions: for effect of inhibiting tumor cell growth: H1299; for IC50: Homo sapiens, NCI-H1299
Experimental: (§1) Please refer to FIG. 1A, FIG. 1B and Table 2, which show the analysis results of the compound of Formula (I) inhibiting ADAM9 activity. In FIG. 1A, Bm7 lung cancer cells were treated with the derivatives of the compound 6X-0310, and then cultured under anchorage-free culture condition. The expressions of ADAM9 and CDCP1 in Bm7 lung cancer cells were detected by Western blot, in which EF1α is an internal control, and mock represents Bm7 lung cancer cells without treatment. […] In the experiment, the compounds of Formula (I) of Example 1 to Example 32 were further performed cytotoxicity assay to measure the IC50 value of the compounds of Formula (I) of the present disclosure in lung cancer cell lines.

[2] = system: lung cancer cells (Bm7brmx2-1st); assay: cytotoxicity assay in Bm7brmx2-1st cells
Experimental: as §1

[3] = system: lung cancer cells (Bm7brmx2-2nd); assay: cytotoxicity assay in Bm7brmx2-2nd cells
Experimental: as §1

[4] = cytotoxicity assay in 293 cells; conditions: 293
[5] = system: kidney cancer cells (293); assay: cytotoxicity assay in 293 cells; conditions: Homo sapiens, HEK293
[6] = system: lung cancer cells (A549); assay: cytotoxicity assay in A549 cells; conditions: for IC50: Homo sapiens
Experimental: as §1

[7] = system: lung cancer cells (Bm7brmx2); assay: cytotoxicity assay in Bm7brmx2 cells
Experimental: as §1

[8] = system: lung cancer cells (TC1); assay: cytotoxicity assay in TC1 cells; conditions: for IC50: TC-1
Experimental: as §1

[9] = system: HNOF; assay: cytotoxicity assay in HNOF cells; conditions: HNOF
[10] = cytotoxicity assay in HNOF cells; conditions: human, HNOF cells

Structure (SMILES) | effect of inhibiting tumor cell growth [1] | IC50 [1] | IC50 [2] | effect of inhibiting tumor cell growth [2] | IC50 [3] | effect of inhibiting tumor cell growth [3] | effect of inhibiting tumor cell growth [4] | IC50 [5] | effect of inhibiting tumor cell growth [6] | IC50 [6] | IC50 [7] | effect of inhibiting tumor cell growth [7] | effect of inhibiting tumor cell growth [8] | IC50 [8] | effect of inhibiting tumor cell growth [9] | IC50 [10]
O=C1c2ccccc2C(=O)N1CCc1csc(Nc2ccc(Cl)c(Cl)c2)n1 [2X-0336] | + | 101 µM | 37.6 µM | + | 63 µM | + | + | 58.7 µM | + | 128 µM | 117 µM | + | + | 55.9 µM | + | 80 µM
N#C/C(=C/c1ccc(OCc2ccccc2)cc1)c1nc(CCN2C(=O)c3ccccc3C2=O)cs1 [4X-0301] | + | 102 µM | 61.2 µM | + | 310 µM | + | + | 49.5 µM | + | 161 µM | 128 µM | + | + | 71.9 µM | + | 77.6 µM
N#C/C(=C/c1cccc(C(F)(F)F)c1)c1nc(CCN2C(=O)c3ccccc3C2=O)cs1 [4X-0302] | + | 190 µM | 520 µM | + | 434 µM | + | + | 55.7 µM | + | 116 µM | 852 µM | + | + | 125 µM | + | 152 µM
CC(C)CN1CCCc2cc(/C=C(\C#N)c3nc(CCN4C(=O)c5ccccc5C4=O)cs3)ccc21 [4X-0311] | + | > 125 µM | 34.4 µM | + | 86.6 µM | + | + | 62.9 µM | + | 238 µM | 60.6 µM | + | + | 345 µM | + | 80.7 µM
N#C/C(=C\c1ccccc1Oc1ccc(Cl)cc1Cl)c1nc(CCN2C(=O)c3ccccc3C2=O)cs1 [4X-0312] | + | 121 µM | 63.4 µM | + | 491 µM | + | + | 134 µM | + | 644 µM | 301 µM | + | + | 136 µM | + | 262 µM
N#C/C(=C\c1ccncc1)c1nc(CCN2C(=O)c3ccccc3C2=O)cs1 [4X-0314] | + | 38400 µM | 1420 µM | + | 15700 µM | + | + | 269 µM | + | 527 µM | 202 µM | + | + | 176 µM | + | 153 µM
COc1ccc(C(=O)Nc2nc(CCN3C(=O)c4ccccc4C3=O)cs2)cc1OC [5X-0314] | + | 116 µM | 51 µM | + | 90.6 µM | + | + | 49.3 µM | + | 184 µM | 66.5 µM | + | + | 202 µM | + | 85.7 µM
O=C(Nc1nc(CCN2C(=O)c3ccccc3C2=O)cs1)c1ccc([N+](=O)[O-])cc1 [6X-0202] | + | 335 µM | 68.6 µM | + | 1270 µM | + | + | 47.6 µM | + | 766 µM | > 125 µM | + | + | 125 µM | + | 78.3 µM
N#C/C(=C/c1cc([N+](=O)O)ccc1Sc1ccccn1)c1nc(CCN2C(=O)c3ccccc3C2=O)cs1 [6X-0229] | + | 171 µM | 56.2 µM | + | 113 µM | + | + | 133 µM | + | 109 µM | 374 µM | + | + | 167 µM | + | 145 µM
O=C1c2ccccc2C(=O)N1CCc1csc(OCc2cc(F)c(F)c(F)c2)n1 [13W-0300] | + |  |  | + |  | + | + |  | + |  |  | + | + |  | + | 
O=C1c2ccccc2C(=O)N1CCc1csc(SCc2ccc(C(F)(F)F)cc2)n1 [13W-0301] | + |  |  | + |  | + | + |  | + |  |  | + | + |  | + | 
O=C(c1nc(CCN2C(=O)c3ccccc3C2=O)cs1)C(O)c1cc2ccccc2o1 (centres unmarked) [13W-0302] | + |  |  | + |  | + | + |  | + |  |  | + | + |  | + | 
O=C1c2ccccc2C(=O)N1CCc1csc(-c2cc3ccccc3[nH]2)n1 [13W-0303] | + |  |  | + |  | + | + |  | + |  |  | + | + |  | + | 
O=C1c2ccccc2C(=O)N1CCc1csc(N2C(=O)c3ccccc3C2=O)n1 [13W-0305] | + |  |  | + |  | + | + |  | + |  |  | + | + |  | + | 
O=C1c2ccccc2C(=O)N1CCc1csc(N2CCCCC2)n1 [13W-0306] | + |  |  | + |  | + | + |  | + |  |  | + | + |  | + | 
O=C1CCC(=O)C1c1nc(CCN2C(=O)c3ccccc3C2=O)cs1 [13W-0307] | + |  |  | + |  | + | + |  | + |  |  | + | + |  | + | 
